Paper PMC9609429 (Pharmaceuticals, 2022)

Experiments:
α1-adrenoceptor = α1-adrenoceptor radioligand binding assay ([3H]-prazosin, rat cerebral cortex); conditions: rat cortex tissue
Procedure: The α1-, α2-, and β1-adrenoceptor radioligand binding assay was carried out on the rat cerebral cortex. [^3H]-prazosin (19.5 Ci/mmol, α1-adrenoceptor), [^3H]-clonidine (70.5 Ci/mmol, α2-adrenoceptor), and [^3H]-CGP-12177 (48 Ci/mmol, β1-adrenergic receptor) were used as specific ligands. The brains were homogenized using ULTRA-TURRAX homogenizer in 10 mL of an ice-cold 50 mM Tris–HCl buffer (pH 7.6). Homogenates were centrifuged at 20,000× g for 20 min (0–4 °C). Next, the cell pellet was resuspended in the Tris–HCl buffer and centrifuged again. Radioligand binding assays were performed in plates (MultiScreen/Millipore). The final incubation mixture (volume 300 μL) consisted of 240 μL of the tissue suspension, 30 μL of radioligand solution, and 30 μL of the buffer containing 7–8 concentrations of the tested compound. […] The incubation was terminated by rapid filtration through Whatman GF/C filters using a vacuum manifold (Millipore). The filters were then washed twice with the assay buffer and placed in scintillation vials with a liquid scintillation cocktail. Radioactivity was measured in a WALLAC 1409 DSA liquid scintillation counter (Perkin Elmer, Waltham, MA, USA). All the assays were made in duplicates and the inhibitory constants (Ki) were estimated.

[1] = system: adrenaline-induced arrhythmia in rats; conditions: administered intravenously; cited from earlier work

Structure (SMILES)	Adrenergic Receptors—pKi α1 (α1-adrenoceptor)	ED50 (adrenaline-induced arrhythmia) [1] [mg/kg]
Cc1ccc(N(CC2=NCCN2)c2cccc(O)c2)cc1 [Phentolamine, phentolamine, reference compound]	8.04	–
COc1ccccc1OCCNCC(O)COc1cccc2[nH]c3ccccc3c12 (centres unmarked) [carvedilol]	–	0.36
